Measurements: patent US11975003B2, “Methods and compositions for treatment of Zika virus infection” (priority 2016, dated 2024)

How the values were obtained:
[1] = test system: Zika virus Malaysia P 6-740; test: CPE reduction assay (neutral red uptake); assay type: cell-based
Protocol: (§1) The compounds were administered at a range of concentrations up to 100 μg/ml. Compounds were prepared in MEM just prior to testing. Inhibition of virus replication was determined by microscopic examination of the infected cells for cytopathic effect, increase of neutral red (NR) dye uptake (colorimetric determination), and virus yield reduction. Uninfected cells treated with a compound were assayed as above for cytotoxicity control. The EC50, EC90 and SI (selectivity index) values were determined in Vero76, Huh7 and RD cells as analyzed by the neutral red uptake dye assay and virus yield reduction assays. The results are presented from 3 or more independent experiments (standard deviations not shown. Three Zika virus strains were used in this in vitro study, Malaysia strain P 6-740, Uganda strain MR-766 and Puerto Rico strain PRVABC-59. Cells were maintained under standard conditions.

[2] = test system: Zika virus Puerto Rico PRVABC59; test: CPE reduction assay (neutral red uptake); assay type: cell-based; conditions: Puerto Rico PRVABC59
Protocol: as §1

Zika virus Uganda MR 766 = test: CPE reduction assay (neutral red uptake); assay type: cell-based
Protocol: as §1

[3] = test system: Zika virus (Malaysia, strain P 6-740); test: Murine Zika virus model, treatment begun 1, 3, 5 or 7 dpi (Example 5); assay type: in vivo, AG129 mice; conditions: for number of mice showing no disease signs: n=8; for weight change in grams between days 7 and 13 post-infection vs placebo: FIG. 10B
Protocol: Compound A was administered IM at 300 mg/kg/day in a volume of 0.05 ml saline.
Disease signs were assessed daily for each mouse and the date the disease sign was first noted was recorded. The graph represents the number of mice observed with each disease sign. […] As the time of administration of Compound A post-infection increased, the number of mice displaying no disease signs decreased (2 mice at 3 dpi, 1 mouse at 5 dpi and 0 mice at 7 dpi) and the total number of disease signs increased (13 disease signs at 3 dpi, 16 disease signs at 5 dpi and 23 disease signs at 7 dpi).

[4] = Phase 1 study of intramuscular injection in healthy human subjects (Example 8); assay type: in vivo; conditions: human, in vivo
Protocol: A phase 1 double-blind, placebo-controlled, dose-ranging study was conducted to evaluate the safety, tolerability, and pharmacokinetics of Compound A administered by intramuscular injection (IM) in healthy human subjects. The study was conducted in two parts. In part 1, subjects received a single dose of Compound A at doses from 0.3 mg/kg to 10 mg/kg via IM administration. Additionally, the effect of lidocaine administration (co-administered with Compound A at a dose of 4 mg/kg) on alleviation of pain associated with injection was also evaluated. In part 2, subjects received Compound A for 7 days (q.d.) at doses of 2.5 mg/kg/day, 5 mg/kg/day or 10 mg/kg/day via IM administration. 50 subjects received single doses of Compound A in part 1 (12 subjects received placebo) and 23 subjects received multiple doses of Compound A in part 2 (6 subjects received placebo). All planned cohorts were completed.
Eligible subjects were adults of either sex ages 18 to 50. […]
The plasma concentration time profile of Compound A was determined for each subject in part 2 (results expressed as ng/ml Compound A). Blood samples were taken on Day 1 prior to administration of the first dose and at 1, 2, 3, 4, 6, 8, 10, 12, 16 and 24 hours after administration of the first dose of Compound A and on Day 7 prior to administration of the last dose of Compound A and at 1, 2, 3, 4, 6, 8, 10, 12, 16, 24, 36, 48, 72 and 96 hours after administration of the last dose of Compound A. Plasma samples were obtained from the blood samples and the concentration of Compound A determined.

## Cl.Nc1ncnc2c([C@@H]3N[C@H](CO)[C@@H](O)[C@H]3O)c[nH]c12 [Compound A]
[1]; Huh-7 cells
  CPE red. assay EC50: 5.5 ± 0.1 µg/mL
[1]; Vero76 cells
  CPE red. assay EC50: 11.5 ± 4.4 µg/mL
[2]; Huh-7 cells
  CPE red. assay EC50: 4.7 ± 0.6 µg/mL
[2]; RD cells
  CPE red. assay EC50: 4.7 ± 2.2 µg/mL
[2]; Vero76 cells
  CPE red. assay EC50: 3.8 ± 2.5 µg/mL
Zika virus Uganda MR 766; Huh-7 cells
  CPE red. assay EC50: 5.7 ± 0.9 µg/mL
Zika virus Uganda MR 766; RD cells
  CPE red. assay EC50: 4.4 ± 1.3 µg/mL
Zika virus Uganda MR 766; Vero76 cells
  CPE red. assay EC50: 11.7 ± 4.7 µg/mL
[3]; 300 mg/kg/day IM
  time of first administration at which treatment is effective: up to 5 days post-infection
[3]; 300 mg/kg/day IM bid x 8 days, begun 1 dpi, p≤0.001
  survival vs placebo: statistically significant improvements in survival
[3]; 300 mg/kg/day IM, begun 1, 3, 5 or 7 dpi, FIG. 10C
  viral RNA levels in serum on day 5 post-infection: not significantly decreased
[3]; 300 mg/kg/day IM, begun 1 dpi
  total number of disease signs: 6 disease signs
  number of mice showing no disease signs: 6 mice
[3]; 300 mg/kg/day IM, begun 1 dpi, p≤0.001
  weight change in grams between days 7 and 13 post-infection vs placebo: statistically significant decrease in weight loss
[3]; 300 mg/kg/day IM, begun 1 dpi, through 27 dpi, FIG. 10A
  percent weight change: essentially no weight change
[3]; 300 mg/kg/day IM, begun 3 dpi
  mortality curve and survival vs placebo: delayed the mortality curve of infected mice and increased survival
  total number of disease signs: 13 disease signs
  number of mice showing no disease signs: 2 mice
[3]; 300 mg/kg/day IM, begun 3 dpi, FIG. 10A
  percentage weight loss: statistically significant decreases in percentage weight loss
[3]; 300 mg/kg/day IM, begun 3 dpi, p≤0.001
  weight change in grams between days 7 and 13 post-infection vs placebo: statistically significant decrease in weight loss
[3]; 300 mg/kg/day IM, begun 5 dpi
  mortality curve and survival vs placebo: delayed the mortality curve of infected mice and increased survival
  total number of disease signs: 16 disease signs
  number of mice showing no disease signs: 1 mouse
[3]; 300 mg/kg/day IM, begun 5 dpi, FIG. 10A
  percentage weight loss: statistically significant decreases in percentage weight loss
[3]; 300 mg/kg/day IM, begun 7 dpi
  total number of disease signs: 23 disease signs
  number of mice showing no disease signs: 0 mice
[4]
  clinically significant laboratory abnormalities: no clinically significant laboratory abnormalities occurred
  exposure vs dose: dose-proportional and linear with increasing dose
[4]; 4 mg/kg
  plasma PK profile on co-administration of lidocaine: without altering the plasma PK profile
